Test results as given in the supplement of paper PMC5662764.
± gives the standard deviation of the averaged measurements.

What was measured:
Test in all cases: normalised growth rate inhibition (GR value) relative to DMSO control (GR (1 = untreated growth, 0 = cytostasis, <0 = cytotoxic)); higher = less growth inhibition
Settings in all cases: 72 h
BT20 = test system: BT20
Protocol: (§1)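 Breast cancer cell lines (BT-20, Hs 578T, MCF 10A, MCF7, MDA-MB-231, SK-BR-3) were plated in 384-well plates and treated 24 h later with drugs at six concentrations (0.04-10 µM). Viable cells were counted by Hoechst/dead-cell-stain imaging at 0 and 72 h. Counts were normalised to DMSO controls on the same plate to give the relative cell count and the growth-rate inhibition (GR) value; technical plate triplicates were averaged for each biological replicate.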

SKBR3 = test system: SKBR3
Protocol: as §1

MCF7 = test system: MCF7
Protocol: as §1

MDAMB231 = test system: MDAMB231
Protocol: as §1

HS578T = test system: HS578T
Protocol: as §1

MCF10A = test system: MCF10A
Protocol: as §1

## CN1CC[C@H](c2c(O)cc(O)c3c(=O)cc(-c4ccccc4Cl)oc23)[C@H](O)C1 [alvocidib]
BT20; 0.04 µM
  normalised growth rate inhibition: 0.324 ± 0.32
BT20; 0.12 µM
  normalised growth rate inhibition: -0.0878 ± 0.2
BT20; 0.37 µM
  normalised growth rate inhibition: -0.251 ± 0.083
BT20; 1.11 µM
  normalised growth rate inhibition: -0.35 ± 0.19
BT20; 3.33 µM
  normalised growth rate inhibition: -0.339 ± 0.2
BT20; 10 µM
  normalised growth rate inhibition: -0.365 ± 0.21
SKBR3; 0.04 µM
  normalised growth rate inhibition: 0.102 ± 0.038
SKBR3; 0.12 µM
  normalised growth rate inhibition: -0.287 ± 0.2
SKBR3; 0.37 µM
  normalised growth rate inhibition: -0.32 ± 0.26
SKBR3; 1.11 µM
  normalised growth rate inhibition: -0.367 ± 0.21
SKBR3; 3.33 µM
  normalised growth rate inhibition: -0.357 ± 0.22
SKBR3; 10 µM
  normalised growth rate inhibition: -0.391 ± 0.21
MCF7; 0.04 µM
  normalised growth rate inhibition: -0.0866 ± 0.19
MCF7; 0.12 µM
  normalised growth rate inhibition: -0.328 ± 0.037
MCF7; 0.37 µM
  normalised growth rate inhibition: -0.335 ± 0.068
MCF7; 1.11 µM
  normalised growth rate inhibition: -0.359 ± 0.057
MCF7; 3.33 µM
  normalised growth rate inhibition: -0.361 ± 0.077
MCF7; 10 µM
  normalised growth rate inhibition: -0.364 ± 0.07
MDAMB231; 0.04 µM
  normalised growth rate inhibition: 0.184 ± 0.25
MDAMB231; 0.12 µM
  normalised growth rate inhibition: -0.239 ± 0.12
MDAMB231; 0.37 µM
  normalised growth rate inhibition: -0.273 ± 0.13
MDAMB231; 1.11 µM
  normalised growth rate inhibition: -0.273 ± 0.16
MDAMB231; 3.33 µM
  normalised growth rate inhibition: -0.282 ± 0.14
MDAMB231; 10 µM
  normalised growth rate inhibition: -0.287 ± 0.16
HS578T; 0.04 µM
  normalised growth rate inhibition: 0.48 ± 0.23
HS578T; 0.12 µM
  normalised growth rate inhibition: -0.156 ± 0.1
HS578T; 0.37 µM
  normalised growth rate inhibition: -0.206 ± 0.082
HS578T; 1.11 µM
  normalised growth rate inhibition: -0.196 ± 0.11
HS578T; 3.33 µM
  normalised growth rate inhibition: -0.193 ± 0.098
HS578T; 10 µM
  normalised growth rate inhibition: -0.188 ± 0.11
MCF10A; 0.04 µM
  normalised growth rate inhibition: 0.197 ± 0.27
MCF10A; 0.12 µM
  normalised growth rate inhibition: -0.2 ± 0.16
MCF10A; 0.37 µM
  normalised growth rate inhibition: -0.288 ± 0.23
MCF10A; 1.11 µM
  normalised growth rate inhibition: -0.281 ± 0.24
MCF10A; 3.33 µM
  normalised growth rate inhibition: -0.281 ± 0.25
MCF10A; 10 µM
  normalised growth rate inhibition: -0.263 ± 0.22

## CCOc1cc2ncc(C#N)c(Nc3ccc(OCc4ccccn4)c(Cl)c3)c2cc1NC(=O)/C=C/CN(C)C [neratinib]
BT20; 0.04 µM
  normalised growth rate inhibition: 0.724 ± 0.042
BT20; 0.12 µM
  normalised growth rate inhibition: 0.669 ± 0.069
BT20; 0.37 µM
  normalised growth rate inhibition: 0.617 ± 0.11
BT20; 1.11 µM
  normalised growth rate inhibition: 0.528 ± 0.11
BT20; 3.33 µM
  normalised growth rate inhibition: 0.41 ± 0.12
BT20; 10 µM
  normalised growth rate inhibition: 0.301 ± 0.13
SKBR3; 0.04 µM
  normalised growth rate inhibition: -0.108 ± 0.19
SKBR3; 0.12 µM
  normalised growth rate inhibition: -0.114 ± 0.2
SKBR3; 0.37 µM
  normalised growth rate inhibition: -0.14 ± 0.19
SKBR3; 1.11 µM
  normalised growth rate inhibition: -0.118 ± 0.22
SKBR3; 3.33 µM
  normalised growth rate inhibition: -0.152 ± 0.22
SKBR3; 10 µM
  normalised growth rate inhibition: -0.215 ± 0.19
MCF7; 0.04 µM
  normalised growth rate inhibition: 0.722 ± 0.12
MCF7; 0.12 µM
  normalised growth rate inhibition: 0.663 ± 0.081
MCF7; 0.37 µM
  normalised growth rate inhibition: 0.585 ± 0.042
MCF7; 1.11 µM
  normalised growth rate inhibition: 0.419 ± 0.23
MCF7; 3.33 µM
  normalised growth rate inhibition: 0.299 ± 0.21
MCF7; 10 µM
  normalised growth rate inhibition: 0.0822 ± 0.12
MDAMB231; 0.04 µM
  normalised growth rate inhibition: 0.907 ± 0.13
MDAMB231; 0.12 µM
  normalised growth rate inhibition: 0.868 ± 0.15
MDAMB231; 0.37 µM
  normalised growth rate inhibition: 0.728 ± 0.12
MDAMB231; 1.11 µM
  normalised growth rate inhibition: 0.581 ± 0.23
MDAMB231; 3.33 µM
  normalised growth rate inhibition: 0.387 ± 0.29
MDAMB231; 10 µM
  normalised growth rate inhibition: 0.0691 ± 0.39
HS578T; 0.04 µM
  normalised growth rate inhibition: 0.887 ± 0.0023
HS578T; 0.12 µM
  normalised growth rate inhibition: 0.81 ± 0.0089
HS578T; 0.37 µM
  normalised growth rate inhibition: 0.649 ± 0.085
HS578T; 1.11 µM
  normalised growth rate inhibition: 0.485 ± 0.22
HS578T; 3.33 µM
  normalised growth rate inhibition: 0.274 ± 0.24
HS578T; 10 µM
  normalised growth rate inhibition: 0.0282 ± 0.1
MCF10A; 0.04 µM
  normalised growth rate inhibition: 0.441 ± 0.24
MCF10A; 0.12 µM
  normalised growth rate inhibition: 0.314 ± 0.19
MCF10A; 0.37 µM
  normalised growth rate inhibition: 0.191 ± 0.11
MCF10A; 1.11 µM
  normalised growth rate inhibition: 0.168 ± 0.098
MCF10A; 3.33 µM
  normalised growth rate inhibition: 0.131 ± 0.058
MCF10A; 10 µM
  normalised growth rate inhibition: 0.122 ± 0.054

## CC1=C(CO)C(=O)O[C@@H]([C@@H](C)[C@H]2CC[C@H]3[C@@H]4C[C@H]5O[C@]56[C@@H](O)C=CC(=O)[C@]6(C)[C@H]4CC[C@]23C)C1 [withaferin-a]
BT20; 0.04 µM
  normalised growth rate inhibition: 1.04 ± 0.038
BT20; 0.12 µM
  normalised growth rate inhibition: 0.99 ± 0.083
BT20; 0.37 µM
  normalised growth rate inhibition: 0.714 ± 0.13
BT20; 1.11 µM
  normalised growth rate inhibition: -0.105 ± 0.13
BT20; 3.33 µM
  normalised growth rate inhibition: -0.345 ± 0.065
BT20; 10 µM
  normalised growth rate inhibition: -0.283 ± 0.026
SKBR3; 0.04 µM
  normalised growth rate inhibition: 1.04 ± 0.063
SKBR3; 0.12 µM
  normalised growth rate inhibition: 0.892 ± 0.096
SKBR3; 0.37 µM
  normalised growth rate inhibition: 0.174 ± 0.15
SKBR3; 1.11 µM
  normalised growth rate inhibition: -0.104 ± 0.11
SKBR3; 3.33 µM
  normalised growth rate inhibition: -0.3 ± 0.086
SKBR3; 10 µM
  normalised growth rate inhibition: -0.278 ± 0.12
MCF7; 0.04 µM
  normalised growth rate inhibition: 1.01 ± 0.055
MCF7; 0.12 µM
  normalised growth rate inhibition: 0.907 ± 0.091
MCF7; 0.37 µM
  normalised growth rate inhibition: 0.283 ± 0.09
MCF7; 1.11 µM
  normalised growth rate inhibition: 0.0882 ± 0.037
MCF7; 3.33 µM
  normalised growth rate inhibition: -0.196 ± 0.13
MCF7; 10 µM
  normalised growth rate inhibition: -0.141 ± 0.099
MDAMB231; 0.04 µM
  normalised growth rate inhibition: 1.04 ± 0.053
MDAMB231; 0.12 µM
  normalised growth rate inhibition: 1 ± 0.05
MDAMB231; 0.37 µM
  normalised growth rate inhibition: 0.614 ± 0.16
MDAMB231; 1.11 µM
  normalised growth rate inhibition: -0.0338 ± 0.067
MDAMB231; 3.33 µM
  normalised growth rate inhibition: -0.143 ± 0.056
MDAMB231; 10 µM
  normalised growth rate inhibition: -0.336 ± 0.097
HS578T; 0.04 µM
  normalised growth rate inhibition: 1.01 ± 0.018
HS578T; 0.12 µM
  normalised growth rate inhibition: 1.01 ± 0.02
HS578T; 0.37 µM
  normalised growth rate inhibition: 0.944 ± 0.077
HS578T; 1.11 µM
  normalised growth rate inhibition: -0.0869 ± 0.077
HS578T; 3.33 µM
  normalised growth rate inhibition: -0.085 ± 0.037
HS578T; 10 µM
  normalised growth rate inhibition: -0.287 ± 0.077
MCF10A; 0.04 µM
  normalised growth rate inhibition: 0.9993 ± 0.0071
MCF10A; 0.12 µM
  normalised growth rate inhibition: 0.984 ± 0.025
MCF10A; 0.37 µM
  normalised growth rate inhibition: 0.861 ± 0.05
MCF10A; 1.11 µM
  normalised growth rate inhibition: -0.0779 ± 0.054
MCF10A; 3.33 µM
  normalised growth rate inhibition: -0.193 ± 0.15
MCF10A; 10 µM
  normalised growth rate inhibition: -0.244 ± 0.19

## C=CC(=O)Nc1cc(-n2c(=O)ccc3cnc4ccc(-c5cn[nH]c5)cc4c32)ccc1C [QL-X-138]
BT20; 0.04 µM
  normalised growth rate inhibition: 0.727 ± 0.052
BT20; 0.12 µM
  normalised growth rate inhibition: 0.726 ± 0.046
BT20; 0.37 µM
  normalised growth rate inhibition: 0.631 ± 0.11
BT20; 1.11 µM
  normalised growth rate inhibition: 0.535 ± 0.17
BT20; 3.33 µM
  normalised growth rate inhibition: 0.381 ± 0.18
BT20; 10 µM
  normalised growth rate inhibition: -0.222 ± 0.053
SKBR3; 0.04 µM
  normalised growth rate inhibition: 0.463 ± 0.16
SKBR3; 0.12 µM
  normalised growth rate inhibition: 0.413 ± 0.11
SKBR3; 0.37 µM
  normalised growth rate inhibition: 0.233 ± 0.13
SKBR3; 1.11 µM
  normalised growth rate inhibition: 0.163 ± 0.09
SKBR3; 3.33 µM
  normalised growth rate inhibition: 0.0588 ± 0.1
SKBR3; 10 µM
  normalised growth rate inhibition: -0.231 ± 0.21
MCF7; 0.04 µM
  normalised growth rate inhibition: 0.496 ± 0.22
MCF7; 0.12 µM
  normalised growth rate inhibition: 0.41 ± 0.2
MCF7; 0.37 µM
  normalised growth rate inhibition: 0.31 ± 0.098
MCF7; 1.11 µM
  normalised growth rate inhibition: 0.205 ± 0.094
MCF7; 3.33 µM
  normalised growth rate inhibition: 0.145 ± 0.061
MCF7; 10 µM
  normalised growth rate inhibition: -0.0977 ± 0.021
MDAMB231; 0.04 µM
  normalised growth rate inhibition: 0.824 ± 0.13
MDAMB231; 0.12 µM
  normalised growth rate inhibition: 0.834 ± 0.062
MDAMB231; 0.37 µM
  normalised growth rate inhibition: 0.768 ± 0.059
MDAMB231; 1.11 µM
  normalised growth rate inhibition: 0.672 ± 0.12
MDAMB231; 3.33 µM
  normalised growth rate inhibition: 0.48 ± 0.13
MDAMB231; 10 µM
  normalised growth rate inhibition: -0.135 ± 0.11
HS578T; 0.04 µM
  normalised growth rate inhibition: 0.841 ± 0.034
HS578T; 0.12 µM
  normalised growth rate inhibition: 0.76 ± 0.066
HS578T; 0.37 µM
  normalised growth rate inhibition: 0.639 ± 0.024
HS578T; 1.11 µM
  normalised growth rate inhibition: 0.501 ± 0.018
HS578T; 3.33 µM
  normalised growth rate inhibition: 0.379 ± 0.061
HS578T; 10 µM
  normalised growth rate inhibition: -0.0527 ± 0.082
MCF10A; 0.04 µM
  normalised growth rate inhibition: 1.01 ± 0.063
MCF10A; 0.12 µM
  normalised growth rate inhibition: 0.981 ± 0.074
MCF10A; 0.37 µM
  normalised growth rate inhibition: 0.887 ± 0.15
MCF10A; 1.11 µM
  normalised growth rate inhibition: 0.791 ± 0.19
MCF10A; 3.33 µM
  normalised growth rate inhibition: 0.505 ± 0.29
MCF10A; 10 µM
  normalised growth rate inhibition: -0.112 ± 0.031
